Data on 25 compounds can be found in US20060194259A1, “Method for isolating an allosteric effector of a receptor” (priority 2002, published 2006).

Experiment [1] concerns the target T1, receptor EGFP-NK2R (UniProt P16610).
T1 sequence (P16610 1-390): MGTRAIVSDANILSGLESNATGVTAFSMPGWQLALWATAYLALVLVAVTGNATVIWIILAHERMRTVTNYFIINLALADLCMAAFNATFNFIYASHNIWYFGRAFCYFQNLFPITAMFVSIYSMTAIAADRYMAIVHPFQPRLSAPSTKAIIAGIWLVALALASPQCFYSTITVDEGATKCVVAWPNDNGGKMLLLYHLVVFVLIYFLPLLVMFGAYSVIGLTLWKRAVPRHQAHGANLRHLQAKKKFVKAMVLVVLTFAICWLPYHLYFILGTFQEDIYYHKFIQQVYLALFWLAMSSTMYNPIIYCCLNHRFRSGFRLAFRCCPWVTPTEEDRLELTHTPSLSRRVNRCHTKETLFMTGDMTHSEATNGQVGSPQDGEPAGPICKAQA
Description: Dissociation kinetics of NKA-Bo bound to EGFP-NK2R by fluorescence energy transfer. To be noted: for % al (at 10 μM): compound 10 μM, T = 22 ± 1 is amplitude of rapid dissociation in the absence of effector; for % al (max): maximum value observed for the increase in amplitude of the rapid dissociation rate / EC50 / EC50 (μM): concentration of compound causing a 50% increase (relative to the maximum value) in the percentage of the amplitude of the rapid dissociation rate: Table 1, ns = not significant; for EC50: read-out: EC50 (μM): concentration of compound causing a 50% increase (relative to the maximum value) in the percentage of the amplitude of the rapid dissociation rate; for EC50 / EC50 (μM): concentration of compound causing a 50% increase (relative to the maximum value) in the percentage of the amplitude of the rapid dissociation rate: dissociation of NKA-Bo from EGFP-NK2R. Details: % al (max): maximum value observed for the increase in amplitude of the rapid dissociation rate; ns = n; other: 20 nM of NK; % al (at 10 μM); other: compou; fused on or other part: EGFP fused to the receptor as FRET donor. The experiment is classed as binding. As to the method: Dissociation (FIG. 4B): HEK 293 cells expressing the receptor EGFP-NK2R are put into suspension at a concentration of 1,000,000 cells/ml in Hepes physiological buffer (in mM: 137.5 NaCl; 1.25 MgCl2; 1.25 CaCl2; 6 KCl; 5.6 glucose; 10 Hepes; 0.4 NaH2PO4; 1% BSA (w/v); pH 7.4) and arranged in a 1 ml cuvette equipped with a magnetic stirrer on the cuvette holder of a SPEX fluorolog 3 spectrofluorimeter.
(§1) The amplitude of each relaxation is then given by the adjustment of the experimental traces.

Experiment [2] concerns the target T1, receptor EGFP-NK2R. Description: Reversion of the binding of NKA-Bo to EGFP-NK2R by fluorescence energy transfer. Also on record: % al (max): maximum value observed for the increase in amplitude of the rapid dissociation rate; ns = n; other: 20 nM of NK; % al (at 10 μM); other: compou; fused on or other part: EGFP fused to the receptor as FRET donor. Conditions: for % bond reversion (at 10 μM): compound 10 μM; for IC50: read-out: IC50 (μM): concentration of compound for which a 50% reduction is observed in the binding of NKA-Bo, 20 nM of NKA-Bo, EGFP-NK2R receptor.
Source text: as §1

Experiment [3] relates to cells not expressing the EGFP-NK2R receptor. The experiment is described as follows: Calcium response on cells not expressing the receptor. The experiment is classed as cell-based. Details: key: ns: not significant; ?: uniterpretable. To be noted: Table 1.
[4] abbreviates: in the presence of 50 μM compound, dissociation by non-fluorescent NKA.

Take `N#CCN(Cc1ccc2ccccc2c1)Cc1ccccc1Br` [CV1-80, [(2-bromobenzyl)(2-naphthylmethyl)amino]acetonitrile]: the “% al (at 10 μM)” value in experiment [1] turned out to be 25%. For the same compound, in experiment [2], the “% bond reversion (at 10 μM)” value is given as 16%.

`N#CCN(Cc1ccccc1)Cc1c[nH]c2ccccc12` [CV1-81]: the “% al (at 10 μM)” value in experiment [1] was 22%. For the same compound, in experiment [2], the “% bond reversion (at 10 μM)” value is given as 15%.

As for `N#CCN(Cc1ccccc1)Cc1cccc(Br)c1` [CV1-84, [benzyl(3-bromobenzyl)amino]acetonitrile], in experiment [1], the “% al (at 10 μM)” value is 25%. Besides, the “% bond reversion (at 10 μM)” value in experiment [2] is given as 4%.

With `N#CCN(Cc1ccccc1)Cc1ccc(Br)cc1` [CV1-85, [benzyl(4-bromobenzyl)amino]acetonitrile], the “% al (at 10 μM)” value in experiment [1] was found to be 28%. In experiment [2], the “% bond reversion (at 10 μM)” value came out at 4%.

Turning to `N#CCN(Cc1ccc(Br)cc1)Cc1ccc2ccccc2c1` [CV1-93, [4-bromobenzyl(2-naphthylmethyl)amino]acetonitrile], the “% al (at 10 μM)” value in experiment [1] worked out at 26%. Further, the “% bond reversion (at 10 μM)” value in experiment [2] was determined as 3%.

As to `N#CCN(Cc1ccccc1)Cc1cccc(Cl)c1Cl` [CV1-97], the “% al (at 10 μM)” value in experiment [1] was 34%. Besides, the “% bond reversion (at 10 μM)” value in experiment [2] amounted to 15%.

Turning to `N#CCN(Cc1ccccc1)Cc1ccc(Cl)cc1` [CV1-122], in experiment [1], the “% al (at 10 μM)” value is recorded as 31%. For the same compound, the “% bond reversion (at 10 μM)” value in experiment [2] is on record as 17%.

With `N#CCN(Cc1ccccc1)Cc1cccc(Cl)c1` [CV1-123], the “% al (at 10 μM)” value in experiment [1] turned out to be 26%. The “% bond reversion (at 10 μM)” value in experiment [2] worked out at 7%.

Turning to `N#CCN(Cc1ccc(CCc2ccccc2)cc1)Cc1ccc2ccccc2c1` [CV1-135], the “% al (at 10 μM)” value in experiment [1] stood at 22%. Also, the “% bond reversion (at 10 μM)” value in experiment [2] worked out at 6%.

`c1ccc(CNc2ncc(-c3ccccc3)s2)cc1` [F3, Benzyl-(5-phenyl-thiazol-2-yl)-amine]: in experiment [1], the “% al (max): maximum value observed for the increase in amplitude of the rapid dissociation rate” value was 65% and the EC50 lay in the range of 1 to 5 µM.

With `O=C(CC(Nc1ncc(-c2ccccc2)s1)c1ccccc1)c1ccccc1` (stereo not drawn) [F7, 1,3-Diphenyl-3-(5-phenyl-thiazol-2-ylamino)-propan-1-one], the “Ca Rep.: ability to evoke a calcium response on cells not expressing the EGFP-NK2R receptor” value in experiment [3] is on record as “ns”. For the same compound, in experiment [1], the “% al (max): maximum value observed for the increase in amplitude of the rapid dissociation rate” value was “≧60%” and the EC50 was not below 50 µM. The IC50 in experiment [2] was found to be 90 µM.

Consider `Cc1ccc(NC(CC(=O)c2ccccc2)c2ccccc2)nc1` (stereo not drawn) [F9, 3-(5-Methyl-pyridin-2-ylamino)-1,3-diphenyl-propan-1-one], for which, in experiment [1], the “EC50 (μM): concentration of compound causing a 50% increase (relative to the maximum value) in the percentage of the amplitude of the rapid dissociation rate” value is “ns” and the “% al (max): maximum value observed for the increase in amplitude of the rapid dissociation rate” value was “ns”. For the same compound, in experiment [2], the IC50 is more than 50 µM.

Consider `NCCCC(NC(=O)c1ccccc1)C(=O)NC(Cc1ccccc1)C(N)=O` (stereo not drawn) [G6, N-(4-amino-1-(1-carbamoyl-2-phenyl-ethylcarbamoyl)-butyl)-benzamide], for which, in experiment [1], the “EC50 (μM): concentration of compound causing a 50% increase (relative to the maximum value) in the percentage of the amplitude of the rapid dissociation rate” value is “ns” and the “% al (max): maximum value observed for the increase in amplitude of the rapid dissociation rate” value is listed as “ns”. The “effect on the dissociation kinetics of NKA-Bo” value in experiment [1] (dissociation by non-fluorescent NKA in the presence of compound) is “does not alter the dissociation rate”. Also, in experiment [1] (setting [4]), the “amplitude of the rapid dissociation of NKA-Bo (% of total signal)” value amounted to 66% and the “amplitude of the slow dissociation of NKA-Bo (% of total signal)” value was found to be 33%. Moreover, the IC50 in experiment [2] came to 46 µM.

For `CCOC(=O)c1ccc(CN(CC#N)Cc2ccc3ccccc3c2)cc1` [G11, 4-[(Cyanomethyl-naphthalen-2-ylmethyl-amino)-methyl]-benzoic acid ethyl ester], in experiment [3], the “Ca Rep.: ability to evoke a calcium response on cells not expressing the EGFP-NK2R receptor” value is “ns”. Moreover, in experiment [1], the “% al (max): maximum value observed for the increase in amplitude of the rapid dissociation rate” value is reported as 70% and the EC50 is 10 to 30 µM. The IC50 in experiment [2] was more than 100 µM.

For the compound `Nc1ccc(CNCc2ccc3ccccc3c2)cc1` [H3, 4-{[(Naphthalen-2-ylmethyl)-amino]-methyl}-phenylamine], the “Ca Rep.: ability to evoke a calcium response on cells not expressing the EGFP-NK2R receptor” value in experiment [3] is listed as “ns”. Besides, in experiment [1], the “EC50 (μM): concentration of compound causing a 50% increase (relative to the maximum value) in the percentage of the amplitude of the rapid dissociation rate” value is given as “ns” and the “% al (max): maximum value observed for the increase in amplitude of the rapid dissociation rate” value was “ns”. In addition, the IC50 in experiment [2] was more than 50 µM.

As for `Clc1ccc(CNCc2ccc3ccccc3c2)cc1` [H6, (4-Chloro-benzyl)-naphthalen-2-ylmethyl-amine], in experiment [1], the “% al (max): maximum value observed for the increase in amplitude of the rapid dissociation rate” value turned out to be 80% and the EC50 lay in the range of 50 to 80 µM. Further, the IC50 in experiment [2] was more than 100 µM.

On to `NC(=O)CN(Cc1ccc2ccccc2c1)c1ccccc1` [H10, 2-(Naphthalen-2-ylmethyl-phenyl-amino)-acetamide], for which the “Ca Rep.: ability to evoke a calcium response on cells not expressing the EGFP-NK2R receptor” value in experiment [3] is “ns”. Besides, in experiment [1], the “% al (max): maximum value observed for the increase in amplitude of the rapid dissociation rate” value is more than 60% and the EC50 was more than 50 µM. Besides, the IC50 in experiment [2] is not below 100 µM.

Regarding `N#CCN(Cc1ccc(Cl)cc1)Cc1ccc2ccccc2c1` [NP234 or 801, [(4-chlorobenzyl)(2-naphthylmethyl)amino]acetonitrile], the “Ca Rep.: ability to evoke a calcium response on cells not expressing the EGFP-NK2R receptor” value in experiment [3] is listed as “ns”. Further, in experiment [1], the “% al (max): maximum value observed for the increase in amplitude of the rapid dissociation rate” value was 60-70% and the EC50 fell in the range of 5 to 10 µM. The IC50 in experiment [2] worked out at 110 µM.

As for `N#CCN(Cc1ccc(Cl)c(Cl)c1)Cc1ccc2ccccc2c1` [NP246 or 803, [(3,4-dichlorobenzyl)(2-naphthylmethyl)amino]acetonitrile], the “Ca Rep.: ability to evoke a calcium response on cells not expressing the EGFP-NK2R receptor” value in experiment [3] is recorded as “ns”. Moreover, in experiment [1], the “% al (max): maximum value observed for the increase in amplitude of the rapid dissociation rate” value is listed as 60-70% and the EC50 lay in the range of 10 to 30 µM. In experiment [1] (at 100 μM of effector, approximately 25% in the absence of effector), the “fraction of receptors in the low-affinity state” value is recorded as approximately 100%. In experiment [2], the IC50 is more than 500 µM.

In the case of `CC(=O)NC1(c2ccccc2)CCN(CC[C@H](CN(C)C(=O)c2ccccc2)c2ccc(Cl)c(Cl)c2)CC1` [SR 48968, reference compound], the “ratio of rapid/slow amplitudes of dissociation of NKA-Bo” value in experiment [1] (each tested concentration of SR 48968) is on record as 45/55. Also, the “relative amplitude of rapid dissociation (0.04 s^-1) of NKA-Bo” value in experiment [1] (in the presence of 0.2, 1 and 5 nM of SR 48968) came to 45%.

On to `N#CCN(Cc1ccc(N)cc1)Cc1cccc2ccccc12` [compound 804, [(4-aminobenzyl)(1-naphthylmethyl)amino]acetonitrile], for which the “Ca Rep.: ability to evoke a calcium response on cells not expressing the EGFP-NK2R receptor” value in experiment [3] is on record as “ns”. Besides, in experiment [1], the “% al (max): maximum value observed for the increase in amplitude of the rapid dissociation rate” value was “≧80%” and the EC50 was in the range of 20 to 30 µM. In addition, the IC50 in experiment [2] is more than 100 µM.

On to `COC(=O)CN(Cc1ccccc1)Cc1ccc2ccccc2c1` [compound 806, methyl [benzyl(2-naphtylmethyl)amino]acetate], for which the “Ca Rep.: ability to evoke a calcium response on cells not expressing the EGFP-NK2R receptor” value in experiment [3] is given as “ns”. Also, in experiment [1], the “% al (max): maximum value observed for the increase in amplitude of the rapid dissociation rate” value came out at 90% and the EC50 lay in the range of 10 to 20 µM. The IC50 in experiment [2] is more than 200 µM.

As for `NC(=O)CN(Cc1ccccc1)Cc1ccc2ccccc2c1` [compound 807, 2-[benzyl(2-naphthylmethyl)amino]acetamide], in experiment [3], the “Ca Rep.: ability to evoke a calcium response on cells not expressing the EGFP-NK2R receptor” value is recorded as “+?”. Moreover, the “% al (max): maximum value observed for the increase in amplitude of the rapid dissociation rate” value in experiment [1] was “≧90%”.

For `C#CCN(Cc1ccccc1)Cc1ccc2ccccc2c1` [compound 808, N-benzyl-N-(2-naphthylmethyl)-N-prop-2-ynylamine], in experiment [1], the “% al (max): maximum value observed for the increase in amplitude of the rapid dissociation rate” value is recorded as “≧70%” and the EC50 was in the range of 20 to 30 µM. The IC50 in experiment [2] is more than 200 µM.

Consider `N#CCN(Cc1ccccc1)c1ncc(-c2ccccc2)s1` [compound 809, [benzyl(5-phenyl-1,3-thiazol-2-yl)amino]acetonitrile], for which, in experiment [1], the “% al (max): maximum value observed for the increase in amplitude of the rapid dissociation rate” value is “≧75%” and the EC50 lay in the range of 1 to 20 µM. In addition, the IC50 in experiment [2] is more than 100 µM.
